Reference: patent publication US20110117627A1, “REGULATION OF APOPTOSIS BY NEURAL SPECIFIC SPLICE VARIANTS OF IG20” (The Board of Trustees of the University of Illinois, priority 2008, published 2011)
“Also recorded” adds a separate entry of the source. Where a SMILES comes first, the peptide text is derived from it. The star is where a group is joined. Cbz = O=C(OCc1ccccc1)*; CH2F = FC*

Key:
Assay type in all cases: cell-based, human
[1] = test system: SK-N-SH cells; experiment: Caspase-8 inhibition, apoptosis by Annexin V-PE/7-AAD; details: 40 μM and 80 μM for two days
Description: FIG. 6. Down modulation of KIAA0358 or selective expression of IG20-SV4 enhances apoptosis through expression/activation of caspase-8 in SK-N-SH cells. (A) Effects of cycloheximide on expression/activation of caspase-8. Three days post-transduction with shRNA-expressing virus, SK-N-SH cells were treated with 10 μg/ml cycloheximde (a protein synthesis inhibitor) for two days. Whole cell lysates were subjected to western blot analysis. (B) Caspase-8 reporter assay. SK-N-SH cells were cotransfected with pGL4.17-caspase-8 promoter vector, pSV40-Renilla luciferase vector and pEYFP-C1/or pEYFP-IG20-SV4 using Lipofectamine2000, 48 hrs later, cells were collected and analyzed for luciferase activity with the Dual-Luciferase Reporter Assay System (Promega). (C) and (D) Effects of caspase-8 inhibition. Three days post-transduction with shRNA-expressing virus, SK-N-SH cells were treated with 40 μM and 80 μM of Z-1ETD-FMK (a caspase 8 inhibitor) for two days. Collected cells were either subjected to Annexin V-PE/7-AAD stain for FACS analysis (C) or western blot analysis (D). (C) Percentage apoptosis in cells transduced with different shRNAs in the presence or absence of the caspase inhibitor. The P-value was **P<0.01 for Z-IETD-FMK treated vs untreated. […] Representative data are from three independent experiments.
Caspase-8 inhibition. […]

[2] = test system: caspase-8; experiment: Caspase-8 inhibition, western blot; details: SK-N-SH cells, 40 μM and 80 μM
Description: (§1) FIG. 6. Down modulation of KIAA0358 or selective expression of IG20-SV4 enhances apoptosis through expression/activation of caspase-8 in SK-N-SH cells. (A) Effects of cycloheximide on expression/activation of caspase-8. Three days post-transduction with shRNA-expressing virus, SK-N-SH cells were treated with 10 μg/ml cycloheximde (a protein synthesis inhibitor) for two days. Whole cell lysates were subjected to western blot analysis. (B) Caspase-8 reporter assay. SK-N-SH cells were cotransfected with pGL4.17-caspase-8 promoter vector, pSV40-Renilla luciferase vector and pEYFP-C1/or pEYFP-IG20-SV4 using Lipofectamine2000, 48 hrs later, cells were collected and analyzed for luciferase activity with the Dual-Luciferase Reporter Assay System (Promega). (C) and (D) Effects of caspase-8 inhibition. Three days post-transduction with shRNA-expressing virus, SK-N-SH cells were treated with 40 μM and 80 μM of Z-1ETD-FMK (a caspase 8 inhibitor) for two days. […]
(§2) Western Blot Analysis. […] The protein content was determined using a dye-binding microassay (Bio-Rad), and after boiling the samples for 2 min in a 1× SDS protein sample buffer, 20 μg of protein per lane was loaded and separated on 10% SDS-polyacrylamide gel. […] Proteins were detected using an enhanced chemiluminescence plus western blotting detection system (Amersham, UK). […]

[3] = test system: caspase-8; experiment: Cycloheximide treatment of transduced SK-N-SH cells, western blot of caspase-8; details: 10 μg/mL cycloheximide
Description: as §1, with “(Promega).” for “(Promega). (C) and (D) Effects of caspase-8 inhibition. Three days post-transduction with shRNA-expressing virus, SK-N-SH cells were treated with 40 μM and 80 μM of Z-1ETD-FMK (a caspase 8 inhibitor) for two days.”
To determine whether the increased apoptosis induced utilizing 34+13L shRNA was due to modulation of the expression of caspase-8, the expression of caspase-8 transcripts was measured in SK-N-SH cells treated with the different combinations of siRNAs. […]
as §2

SMILES	apoptosis in cells treated with shRNA targeting 34E [1]	apoptotic effect caused by down-modulation of KIAA0358 [1]	effect on caspase-8 expression (western blot) [2]	expression of caspase-8 protein [3]
CC[C@H](C)[C@H](NC(=O)OCc1ccccc1)C(=O)N[C@@H](CCC(=O)OC)C(=O)N[C@H](C(=O)N[C@@H](CC(=O)OC)C(=O)CF)[C@@H](C)O [Z-IETD-FMK] (Cbz-IE(OMe)TD(OMe)-CH2F)	did not significantly affect apoptosis	significantly attenuated the apoptotic effect	inhibitory effect	–
C[C@@H]1C[C@@H]([C@H](O)CC2CC(=O)NC(=O)C2)C(=O)[C@@H](C)C1 [cycloheximide]	–	–	–	inhibited the expression of caspase-8 protein; also recorded: the induced caspase-8 was inhibited
